In US20260285846A1, “REV-ERB AGONISTS FOR TH17-MEDIATED INFLAMMATORY DISORDERS” (UNIVERSITY OF FLORID RESEARCH FOUNDATION, iNCORPORATED, priority 2021, published 2026):

What follows are molecules tested against REV-ERBα LBD (Homo sapiens, UniProt P20393, DEL324-422) (assay: biochemical). Conditions: FRET assay; 6xHistag-REV-ERBα LBD with FITC-labeled SMRT corepressor peptide; read-out: REVERBα (Agonism of REV-ERBα, EC50).
Outline: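 Serially diluted ligands were incubated 2 h at 4° C, in triplicate, with E. coli-expressed His-REV-ERBα LBD (281-614 Δ324-422 or 381-579; 4 nM), Tb-anti-His (1 nM) and FITC-labelled SMRT peptide (400 nM). EC50 came from sigmoidal fits of the 520/495 nm TR-FRET ratio.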

Sequence of REV-ERBα LBD (P20393 with tags, fused parts or gaps DEL324-422): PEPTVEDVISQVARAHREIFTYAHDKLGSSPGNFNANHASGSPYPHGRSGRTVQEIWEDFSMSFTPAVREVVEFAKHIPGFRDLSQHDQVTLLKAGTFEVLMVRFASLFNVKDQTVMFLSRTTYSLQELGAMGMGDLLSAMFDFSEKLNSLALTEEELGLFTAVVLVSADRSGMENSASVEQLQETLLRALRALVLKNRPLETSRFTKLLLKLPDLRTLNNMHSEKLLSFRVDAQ
Sequence of REV-ERBα LBD (Q9Y618 2335-2356 partner limits assumed): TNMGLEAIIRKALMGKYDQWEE

Compound | EC50 [nM]
CC(NS(=O)(=O)C1CC1)c1cn(CC(C)(C)C)c2cc(-c3ncccc3C(F)(F)F)c(F)cc12 (single isomer, unassigned) [Compound 17, (R or S)—N-(1-(5-fluoro-1-neopentyl-6-(3-(trifluoromethyl)pyridine-2-yl)-1H-indol-3-yl)ethyl)cyclopropane sulfonamide] | 100 to 1000
CC(NS(=O)(=O)C1CC1)c1cn(CC(C)(C)C)c2cc(C3CCOCC3)ccc12 (single isomer, unassigned) [Compound 23, (R or S) N-(1-(1-neopentyl-6-(tetrahydro-2H-pyran-4-yl)-1H-indol-3-yl)ethyl)cyclopropanesulfonamide] | < 100
Cc1ccccc1-c1ccc2c([C@H](NS(=O)(=O)C3CC3)C(F)F)cn(CC(C)(C)C)c2c1 [Compound 15, (S)—N-(2,2-difluoro-1-(1-neopentyl-6-(o-tolyl)-1H-indol-3-yl)ethyl)cyclopropanesulfonamide] | < 100
COc1cccc(C#N)c1-c1ccc2c([C@H](NS(=O)(=O)C3CCC3)C(F)(F)F)cn(CC(C)(C)C)c2c1 [Compound 6, (S)—N-(1-(6-(2-cyano-6-methoxyphenyl)-1-neopentyl-1H-indol-3-yl)-2,2,2-trifluoroethyl)cyclobutanesulfonamide] | 100 to 1000
CC(NS(=O)(=O)C1CC1)c1cn(CC(C)(C)C)c2cc(-c3ncccc3C#N)c(F)cc12 (single isomer, unassigned) [Compound 20, (S or R)—N-(1-(6-(3-cyanopyridin-2-yl)-5-fluoro-1-neopentyl-1H-indol-3-yl)ethyl)cyclopropanesulfonamide] | 100 to 1000
CC(NS(=O)(=O)C1CC1)c1cn(CC(C)(C)C)c2cc(-c3ncccc3C(F)(F)F)c(F)cc12 (single isomer, unassigned) [Compound 18, (S or R)—N-(1-(5-fluoro-1-neopentyl-6-(3-(trifluoromethyl)pyridine-2-yl)-1H-indol-3-yl)ethyl)cyclopropane sulfonamide] | < 100
CC(C)(C)Cn1cc([C@H](NS(=O)(=O)C2CC(F)(F)C2)C(F)F)c2ccc(-c3ccccc3C(F)(F)F)cc21 [Compound 11, (S)—N-(2,2-difluoro-1-(1-neopentyl-6-(2-(trifluoromethyl)phenyl)-1H-indol-3-yl)ethyl)-3,3-difluorocyclobutane-1-sulfonamide] | < 100
CC(C)(C)Cn1cc([C@H](NS(=O)(=O)C2CC2)C(F)F)c2ccc(-c3nccnc3C#N)cc21 [Compound 48, (S)—N-(1-(6-(3-cyanopyrazin-2-yl)-1-neopentyl-1H-indol-3-yl)-2,2-difluoroethyl)cyclopropanesulfonamide] | 100 to 1000
[2H]C1([2H])CC(S(=O)(=O)N[C@@H](c2cn(CC(C)(C)C)c3cc(-c4cccnc4C(F)(F)F)c(F)cc23)C(F)F)C1 [Compound 45, (S)—N-(2,2-difluoro-1-(5-fluoro-1-neopentyl-6-(2-(trifluoromethyl)pyridin-3-yl)-1H-indol-3-yl)ethyl)cyclobutane-1-sulfonamide-3,3-d2] | < 100

Next, values leading:

EC50 [nM] | Compound
< 100 | CC(C)(C)Cn1cc([C@H](NS(=O)(=O)C2CC2)C(F)F)c2ccc(-c3cncnc3C(F)(F)F)cc21 [Compound 80, (S)—N-(2,2-difluoro-1-(1-neopentyl-6-(4-(trifluoromethyl)pyrimidin-5-yl)-1H-indol-3-yl)ethyl)cyclopropanesulfonamide]
< 100 | CC(NS(=O)(=O)C1CC1)c1cn(CC(C)(C)C)c2cc(-c3ncccc3Cl)c(F)cc12 (centres unmarked) [Compound 58, N-[1-[6-(3-chloro-2-pyridyl)-1-(2,2-dimethylpropyl)-5-fluoro-indol-3-yl]ethyl]cyclopropanesulfonamide]
< 100 | CC(C)(C)Cn1cc([C@H](NS(=O)(=O)C2CC2)C(F)F)c2cc(F)c(-c3c(C(F)F)ccnc3C#N)cc21 [Compound 122, N-((1S)-1-(6-(2-cyano-4-(difluoromethyl)pyridin-3-yl)-5-fluoro-1-neopentyl-1H-indol-3-yl)-2,2-difluoroethyl)cyclopropanesulfonamide]
< 100 | CC(C)(C)Cn1cc([C@H](NS(=O)(=O)C2CC2)C(F)F)c2ccc(-c3ncccc3C3CC3)cc21 [Compound 101, (S)—N-(1-(6-(3-cyclopropylpyridin-2-yl)-1-neopentyl-1H-indol-3-yl)-2,2-difluoroethyl)cyclopropanesulfonamide]
< 100 | CN(C)S(=O)(=O)N[C@@H](c1cn(CC(C)(C)C)c2cc(-c3c(C#N)cccc3C(F)(F)F)ccc12)C(F)F [Compound 75]
< 100 | N#Cc1cccc(C(F)(F)F)c1-c1nc2c(cc1F)c([C@H](NS(=O)(=O)C1CC1)C(F)F)cn2C1CCC1 [Compound 158, N-((1S)-1-(6-(2-cyano-6-(trifluoromethyl)phenyl)-1-cyclobutyl-5-fluoro-1H-pyrrolo[2,3-b]pyridin-3-yl)-2,2-difluoroethyl)cyclopropanesulfonamide]
< 100 | CC(C)(C)Cn1cc([C@H](NS(=O)(=O)C2CC2)C(F)F)c2cc(F)c(-c3c(C#N)cccc3C(F)(F)F)cc21 [Compound 108, N-((1S)-1-(6-(2-cyano-6-(trifluoromethyl)phenyl)-5-fluoro-1-neopentyl-1H-indol-3-yl)-2,2-difluoroethyl)cyclopropanesulfonamide]
100 to 1000 | CC(NS(=O)(=O)C1CC1)c1cn(CC(C)(C)C)c2cc(-c3ccc(C(F)(F)F)nc3)c(F)cc12 (centres unmarked) [Compound 70, N-(1-(5-fluoro-1-neopentyl-6-(6-(trifluoromethyl)pyridin-3-yl)-1H-indol-3-yl)ethyl)cyclopropanesulfonamide]
< 100 | CC(NS(=O)(=O)C1CC1)c1cn(CC(C)(C)C)c2cc(-c3ncc(F)cc3C#N)c(F)cc12 (centres unmarked) [Compound 63, N-(1-(6-(3-cyano-5-fluoropyridin-2-yl)-5-fluoro-1-neopentyl-1H-indol-3-yl)ethyl)cyclopropanesulfonamide]
< 100 | CN(C)S(=O)(=O)N[C@@H](c1cn(CC(C)(C)C)c2cc(-c3ncc(F)cc3C(F)(F)F)ccc12)C(F)F [Compound 74]
< 100 | Cc1ncnc(C(F)F)c1-c1ccc2c([C@H](NS(=O)(=O)C3CC3)C(F)F)cn(CC(C)(C)C)c2c1 [Compound 120, (S)—N-(1-(6-(4-(difluoromethyl)-6-methylpyrimidin-5-yl)-1-neopentyl-1H-indol-3-yl)-2,2-difluoroethyl)cyclopropanesulfonamide]
< 100 | Cc1cc(C(F)(F)F)c(-c2cc3c(cc2F)c([C@H](NS(=O)(=O)C2CC2)C(F)F)cn3CC(C)(C)C)cn1 [Compound 140, (S)—N-(2,2-difluoro-1-(5-fluoro-6-(6-methyl-4-(trifluoromethyl)pyridin-3-yl)-1-neopentyl-1H-indol-3-yl)ethyl)cyclopropanesulfonamide]
< 100 | Cc1ccnc(C(F)(F)F)c1-c1cc2c(cc1F)c([C@H](NS(=O)(=O)C1CC1)C(F)F)cn2CC(C)(C)C [Compound 129, N-((1S)-2,2-difluoro-1-(5-fluoro-6-(4-methyl-2-(trifluoromethyl)pyridin-3-yl)-1-neopentyl-1H-indol-3-yl)ethyl)cyclopropanesulfonamide]
< 100 | Cc1ncc(F)cc1-c1cc2c(cc1F)c([C@H](NS(=O)(=O)C1CC1)C(F)F)cn2CC(C)(C)C [Compound 95, (S)—N-(2,2-difluoro-1-(5-fluoro-6-(5-fluoro-2-methylpyridin-3-yl)-1-neopentyl-1H-indol-3-yl)ethyl)cyclopropanesulfonamide]
